The NIST ThermoML archive (doi:10.1021/je700140j)

Assay: refractive index (Na D-line) (dimensionless); xn = mol fraction of the nth substance listed
Details: 100.8 kPa, Liquid, Standard Abbe refractometry

OCCc1ccccc1 [2-phenylethanol] + CC(C)O
refractive index
Details	298.15 K	308.15 K	318.15 K
x2 = 0	1.53269	1.52852	1.52427
x2 = 0.05	1.52795	1.52391	1.51972
x2 = 0.1	1.523	1.51896	1.51478
x2 = 0.15	1.5178	1.51375	1.50956
x2 = 0.2	1.51235	1.50826	1.50405
x2 = 0.25	1.50661	1.50253	1.49832
x2 = 0.3	1.50063	1.49652	1.49228
x2 = 0.35	1.49437	1.49025	1.48598
x2 = 0.4	1.4878	1.48365	1.47938
x2 = 0.45	1.48091	1.47673	1.47245
x2 = 0.5	1.47367	1.4695	1.46522
x2 = 0.55	1.46611	1.46193	1.45763
x2 = 0.6	1.45816	1.45395	1.44964
x2 = 0.65	1.44975	1.44553	1.4412
x2 = 0.7	1.44087	1.43664	1.4323
x2 = 0.75	1.43149	1.42725	1.4229
x2 = 0.8	1.42156	1.41733	1.41297
x2 = 0.85	1.411	1.40678	1.40239
x2 = 0.9	1.39973	1.39547	1.39112
x2 = 0.95	1.38776	1.38342	1.37903

OCCc1ccccc1 [2-phenylethanol] + OCc1ccccc1
refractive index
Details	298.15 K	308.15 K	318.15 K
x2 = 0	1.53269	1.52852	1.52427
x2 = 0.05	1.53322	1.52911	1.52495
x2 = 0.1	1.53367	1.52961	1.52549
x2 = 0.15	1.5341	1.53006	1.52594
x2 = 0.2	1.53454	1.5305	1.52636
x2 = 0.25	1.53495	1.53089	1.52674
x2 = 0.3	1.53532	1.53125	1.5271
x2 = 0.35	1.53568	1.53159	1.52745
x2 = 0.4	1.53601	1.53193	1.52777
x2 = 0.45	1.53633	1.53225	1.52809
x2 = 0.5	1.53663	1.53255	1.52839
x2 = 0.55	1.53689	1.53281	1.52864
x2 = 0.6	1.53712	1.53304	1.52888
x2 = 0.65	1.53733	1.53325	1.5291
x2 = 0.7	1.53752	1.53344	1.52929
x2 = 0.75	1.53772	1.53362	1.52947
x2 = 0.8	1.53789	1.53377	1.52961
x2 = 0.85	1.53804	1.53391	1.52973
x2 = 0.9	1.53819	1.53403	1.52984
x2 = 0.95	1.53833	1.53414	1.52993

OCc1ccccc1 [benzenemethanol] + CC(C)O
refractive index
Details	298.15 K	308.15 K	318.15 K
x2 = 0	1.53843	1.53421	1.52994
x2 = 0.05	1.53277	1.52858	1.52435
x2 = 0.1	1.52684	1.52268	1.51849
x2 = 0.15	1.5207	1.51654	1.51233
x2 = 0.2	1.5143	1.51019	1.50598
x2 = 0.25	1.50772	1.50359	1.49935
x2 = 0.3	1.50089	1.49674	1.4925
x2 = 0.35	1.49383	1.48966	1.48542
x2 = 0.4	1.48652	1.48234	1.47809
x2 = 0.45	1.47899	1.4748	1.47053
x2 = 0.5	1.47118	1.46698	1.46269
x2 = 0.55	1.4631	1.45889	1.45458
x2 = 0.6	1.45472	1.4505	1.44616
x2 = 0.65	1.44605	1.44182	1.43746
x2 = 0.7	1.43707	1.43283	1.42848
x2 = 0.75	1.42774	1.4235	1.41916
x2 = 0.8	1.41804	1.4138	1.40943
x2 = 0.85	1.40795	1.40368	1.39933
x2 = 0.9	1.39746	1.39319	1.38883
x2 = 0.95	1.38648	1.38219	1.3778
